The text below walks through data of patent US20200069592A1, “HSP90 INHIBITOR ORAL FORMULATIONS AND RELATED METHODS” (Samus Therapeutics, Inc., priority 2017, published 2020).

SMILES strings stand for the structures. Read-outs that look alike come from different tables or passages of the source.

The nature of series [1]: Particle size distribution (Cilas 1180) of as-received and jet milled API (Example 8). The class given is physicochemical. The protocol: Compound 2 API ‘as-received’ (Lots #2064-118-8, #2064-146-9, and # BPR-WS 1828-194D(2HCl)—B1-19) were analyzed for PSD on a Cilas 1180 particle size analyzer. Subsequently jet milled API batches B # L0441-20-JM51mmP1, B # L0441-20-JM51mmP2, B # L0441-20-JM51mmP3, and B # L0441-84-JM146mmP1 were also analyzed for PSD Approximately 50 mg Compound 2-2HCl was dispersed into 40 mL 0.2% (w/w) span 80 in n-hexanes (dispersant) and allowed to mix for 60 minutes. API was kept suspended in dispersant via stirring and sonication during test.
A jet milling study was performed on a batch of Compound 2 2HCl with jet mill Fluid Energy Asset #00170 outfitted with a 51 mm collection loop. Batches B # L0441-29-JM51mmP1, B # L0441-29-JM51mmP2, and B # L0441-29-JM51mmP3 were created from ˜10 g of Compound 2 lot # BPR-WS1828-194D(2HCl)-B1-19 subjected to 3 passes. Jet mill settings for grinder nozzle and pusher nozzle as follows: Pass 1 grinder nozzle=60 psi & pusher nozzle=80 psi, Pass 2 and 3 grinder nozzle=50 psi & pusher nozzle=70 psi.
After successfully jet milling on the R&D scale, B # L0441-84-JM146mmP1 was created from Compound 2-2HCl lot # BPR-17-87-B1-21d which was processed with a single pass to confirm GMP scale up conditions in the R&D laboratory by passing 85 g through the GMP jet mill Jet-O-Mizer Asset #01 16 Model 0101 outfitted with 146 mm collection loop using a standard nylon 4×48-inch collection sock inside a PTFE 4×48-inch sock to minimize fines loss. The pressure settings for the grinder and pusher nozzle were: Grinder nozzle 60 psi, Pusher nozzle 70 psi.

The conditions of series [2]: female, Sprague Dawley, rat, in vivo, po.
Procedure: (§1) The animals used in this study were female Sprague Dawley Rats physiologically normal. At the time of receipt, mice were 200-225 g in weight. […] Ninety-four total animals were observed thereafter. The parenteral administration is performed by tail vein injection.
(§2) Compound 2 was provided in free base form and stored at −20° C., protected from light. Compound 2 was formulated in dosage form immediately prior to use. For oral administration of Compound 2 in ORA-Plus® drinking solution, Compound 2 was suspended in drinking solution ORA-Plus® (Perrigo; Minneapolis, Minn.). First, a mortar and pestle were used to smooth out the Compound 2 powder, then a small amount of ORA-Plus® was added, and next, the mixture was triturated to a thick, smooth paste. The remainder of the ORA-Plus® was added by geometric dilution. The Compound 2 free base and ORA-Plus® mixture was dispensed in a tight, light resistant amber bottle with appropriate labeling. This mixture was shaken well before using, protected from light and kept refrigerated if dosing was delayed. For oral administration of Compound 2 in citric acid buffer with Captisol®, Compound 2 free base powder was dissolved or suspended into 30% Captisol® (Cydex Pharmaceuticals; Lawrence, Kans.) in 60 mM citrate buffer (pH˜4.2) (citric acid and sodium citrate dehydrate (Sigma-Aldrich; St. Louis Mo.)) in sterile water) to each group's working concentration. […] A magnetic stir-bar was used to mix dosing solution, followed by sonication. For intravenous administration, Compound 2 free base powder was dissolved into 15% Captisol® in 5 mM citrate buffer (pH˜4.2) to each group's working concentration. A magnetic stirbar was used to mix dosing solution, followed by sonication. IV dosing solution of Compound 2 free base was filtered with a 0.2 m PVDF filter (Pall Life Sciences; Port Washington, N.Y.) prior to administration.
(§3) Dose levels of Compound 1 were based on the free base, not the salt.
(§4) Animals were randomized using random equilibration of body weights on Day 1 into one of 19 study groups, as shown in Table 23 (Groups 1-19), with 5 animals in each group, except for the 4 animals in Group 19. Body weights were collected Days 1, 2, 3, and/or 4 to accommodate data collection of staggered groups. Gross observations of body weight were noted during the course of the study.
Series [3] can be described thus: Plasma pharmacokinetics after single PO or IV administration (Example 5), LC-MS/MS. The conditions noted are these: female, Sprague-Dawley, rat, plasma, dosed as 2HCl; for AUC(0-t): AUC0-last (hr*ng/mL) Mean ± StdDev; for Cmax: Cmax (ng/mL) Mean ± StdDev; for Tmax: Tmax (hr) Mean ± StdDev.
Procedure: as §1, §2, §3, §4
The mark [4] stands for this setting: after jet milling, 51 mm collection loop.
[5] abbreviates: iv, 12 mg/kg, Group 18: 12 mg/kg IV, 0.9% Saline.
Setting [6] is: iv, 24 mg/kg, Group 19: 24 mg/kg IV, 0.9% Saline.
Setting [7] is: po, 24 mg/kg, Group 11: 24 mg/kg PO, ORA-Plus, single dose.
Setting [8] is: po, 36 mg/kg, Group 12: 36 mg/kg PO, ORA-Plus.
[9] abbreviates: po, 36 mg/kg, Group 15: 36 mg/kg PO, 0.5% Methylcellulose in water.
[10] abbreviates: po, 48 mg/kg, Group 13: 48 mg/kg PO, ORA-Plus.
[11] abbreviates: po, 48 mg/kg, Group 16: 48 mg/kg PO, 0.5% Methylcellulose in water.
[12] abbreviates: po, 60 mg/kg, Group 14: 60 mg/kg PO, ORA-Plus.
[13] abbreviates: po, 60 mg/kg, Group 17: 60 mg/kg PO, 0.5% Methylcellulose in water.

On to `CC(C)(C)CNCCn1c(Sc2cc3c(cc2I)OCO3)nc2c(N)ncnc21` [B #132-L0441-20-JM51mmP3], for which, in series [1] (setting [4]), the “Particle size d10” value came out at 2.0 μm, the “Particle size d50” value was determined as 4.8 μm, the “Particle size d90” value was determined as 10.1 μm and the Particle size span is 8.1 μm.
Consider `CC(C)(C)CNCCn1c(Sc2cc3c(cc2I)OCO3)nc2c(N)ncnc21` [B #132-L0441-20-JM51mmP1], for which, in series [1] (setting [4]), the “Particle size d10” value turned out to be 3.1 μm, the “Particle size d50” value came to 7.9 μm, the “Particle size d90” value was found to be 17.3 μm and the Particle size span is 14.2 μm. In series [1] (as quoted for the batches used in Example 9, listed as B # L0441-20-JM51mmP1), the “Particle size d90” value was 17 um.
`CC(C)(C)CNCCn1c(Sc2cc3c(cc2I)OCO3)nc2c(N)ncnc21` [B #132-L0441-20-JM51mmP2]: in series [1] (setting [4]), the “Particle size d10” value turned out to be 2.3 μm, the “Particle size d50” value was determined as 5.6 μm, the “Particle size d90” value is given as 11.7 μm and the Particle size span is on record as 9.4 μm. For the same compound, in series [1] (as quoted for the batches used in Example 9, listed as B # L0441-20-JM51mmP2), the “Particle size d90” value is listed as 11 um.
For the compound `CC(C)NCCCn1c(Sc2cc3c(cc2I)OCO3)nc2c(N)ncnc21` [Compound 1], the “% AUC0-last ORA vs methylcellulose Mean ± StdDev” value in series [2] (36 mg/kg) stood at 119.11 ± 45.91%; in series [2] (48 mg/kg), 111.81 ± 69.18%; in series [2] (60 mg/kg), 70.33 ± 23.05%. For the same compound, the “% Cmax ORA vs methylcellulose Mean ± StdDev” value stood at 118.75 ± 64.56% in series [2] (36 mg/kg), 89.30 ± 37.98% in series [2] (48 mg/kg) and 66.16 ± 17.44% in series [2] (60 mg/kg). Further, the AUC(0-t) (commonly exposure summed from dosing to a finite time, without extrapolation to infinity) is 2470 ± 573 ng·h/mL in series [3] (setting [5]); 5500 ± 2800 ng·h/mL in series [3] (setting [6]); 2700 ± 462 ng·h/mL in series [3] (setting [7]); 3220 ± 870 ng·h/mL in series [3] (setting [8]); 2850 ± 919 ng·h/mL in series [3] (setting [9]); 6500 ± 2030 ng·h/mL in series [3] (setting [10]). Further, the AUC(0-t) in series [3] (setting [11]) was 6500 ± 1690 ng·h/mL; in series [3] (setting [12]), 4870 ± 1420 ng·h/mL; in series [3] (setting [13]) it was 7320 ± 2440 ng·h/mL. The Cmax (in general, the highest concentration seen after dosing) turned out to be 1280 ± 325 ng/mL in series [3] (setting [5]); 2080 ± 79.3 ng/mL in series [3] (setting [6]); 807 ± 214 ng/mL in series [3] (setting [7]); 853 ± 193 ng/mL in series [3] (setting [8]); 812 ± 270 ng/mL in series [3] (setting [9]); 1420 ± 470 ng/mL in series [3] (setting [10]). For the same compound, the Cmax in series [3] (setting [11]) came to 1650 ± 271 ng/mL; in series [3] (setting [12]) it was 1120 ± 175 ng/mL; in series [3] (setting [13]) it was 1760 ± 458 ng/mL. The Tmax (in general, the time from dosing to the highest level) in series [3] (setting [5]) was found to be 0.25 h; in series [3] (setting [6]), 0.31 ± 0.13 h; in series [3] (setting [7]) it was 2 h; in series [3] (setting [8]) it was 2 h; in series [3] (setting [9]) it was 2.2 ± 1.1 h; in series [3] (setting [10]) it was 2.4 ± 0.89 h. The Tmax in series [3] (setting [11]) was 1.4 ± 0.55 h; in series [3] (setting [12]), 3 ± 2 h; in series [3] (setting [13]), 1.5 ± 0.71 h.
